Measurements published in US20050226821A1, “Cosmetic formulations containing l-arginine oligomers” (priority 2002, published 2005).

Experiments:
C57 black six mice = experiment: Topical enhancement of hair growth after depilation, daily application for 14 days; format: in vivo; parameters: key to Hair Shaft Length, Comparison anova (95) vs. control / Follicle Area, Comparison anova (95) vs. control / Number of follicles per cross-section, Comparison anova (95) vs. control: **: significant by fisher PLSD and Scheffe F-test (P = 0.0001)
Experimental: A preparation of (L-arg)-(L-arg)-(L-arg)-(L-arg)-(L-arg)-(L-arg)-(L-arg)-(L-arg)-(L-arg) or [LR9] was obtained from Sigma Genosys at >70% purity. To achieve a therapeutic benefit on hair growth, a 10× stock of LR9 was prepared as 70 mg in 80 μl PBS. To 0.2 ml of Cetaphil moisturizer base was added the following: • LR9: 20 μl of 10× LR9 stock • Control: 20 μl PBS
After addition of LR9/PBS to moisturizer base, samples were mixed to homogeneity and stored at 4C overnight. C57 black six mice at 8 weeks of age were anesthetized with 3% isoflurane by inhalation, were shaved, and underwent depilation at mid-scapular dorsal region of 2 cm×2 cm with a rosin mixture (Surgiwax, Ardell, Commerce, Calif.) to induce the synchronized adolescent first hair cycle. Moisturizer was applied daily at 0.2 cc per day for either LR9 treatment or control for a fourteen day period at n=4 per group. After 14 days application the treated skin segment was harvested en bloc and subdivided into three equal portions: a cranial portion, a left lateral portion and a right lateral portion. The cranial portion and the left lateral portion were fixed in 10% neutral buffered formalin for 12-16 hours, then rinsed in 70% ethanol and embedded in paraffin. The right lateral portion was snap frozen in OCT medium at the time of harvest and stored at −35C until use.
Paraffin-embedded specimens were sectioned at 4-6 microns, deparaffinized, and stained with a combination of Verhoeff elastica stain and the Masson trichrome stain for morphological assessment of follicle area and number. Frozen samples underwent random hair pulls to determine hair shaft length. All procedures and analyses were performed by blinded observers. […] Images were analyzed using Image Pro Plus software (Media Cybernetics, Silver Spring, Md.) to determine total cross-sectional follicle area, follicle number, or hair length. Mean and standard error were assessed using Statview (Abacus Concepts, Berkeley, Calif.), with comparisons made using ANOVA repeated measures and significance determined at 95% with post-hoc testing using Fisher PLSD or Scheffe F-test.

human subjects = experiment: Topical lip color and contour enhancement, image analysis of lip area after lip gloss application; format: in vivo; details: mean across 1, 5, 10, 15 and 30 minutes after application, Revlon Lip Gloss base
Experimental: A preparation of (L-arg)-(L-arg)-(L-arg)-(L-arg)-(L-arg)-(L-arg)-(L-arg)-(L-arg)-(L-arg) or [LR9] was obtained from Sigma Genosys at >70% purity. […], a 1× stock of LR9 for lip enhancement was prepared as 35 mg in 50 μl pbs, which was added to 2.0 ml of Revlon Lip Gloss base for the following groups: • LR9 • Control (base only)
After addition of LR9 to lip gloss base, samples were mixed to homogeneity and stored at room temperature overnight. After baseline image acquisition using a Minolta Dimage 7 digital camera set to 105 macro (1:1) with standard lighting and scaling conditions, human subjects underwent topical application of LR9 or control gloss. All participants were blinded with respect to treatment or control application. Additional digital micrographs were acquired at time 0, 1, 5, 10, 15, and 30 minutes after lip gloss application. The gloss was then removed and participants asked to record duration of any lip contour or color changes. Additionally, any complications (irritation, etc) were also tracked for each. Each subject was treated at different timepoints with both groups (treatment or control). Image analysis of total photographic area was performed for each group, with care taken to normalize each to scales included at the time of photograph acquisition. Baseline images (pre-application) were verified to have statistically similar values between pre-LR9 gloss and pre-base gloss applications for each participant. Mean and standard error across timepoints 1, 5, 10, 15, and 30 minutes were determined for each participant after LR9-gloss or base gloss application. Values for each as well as photos acquired at matching timepoints are presented by participant below for 3 participants. [drawing]

## (L-arg)-(L-arg)-(L-arg)-(L-arg)-(L-arg)-(L-arg)-(L-arg)-(L-arg)-(L-arg) [LR9]
C57 black six mice; 14 days topical
  Number of follicles per cross-section, Mean: 406.417
C57 black six mice; 14 days topical, 0.2 cc per day in Cetaphil moisturizer base, n=4, 1 pixel = 2.774 microns
  Hair Shaft Length, Mean: 1612.424 pixels
C57 black six mice; 14 days topical, 1 square pixel = 7.69 square microns
  Follicle Area (by total x-sectional area), Mean: 53546.00 square pixels
C57 black six mice; 14 days, LR9 vs. control
  Follicle Area, Comparison anova (95) vs. control: **
  Hair Shaft Length, Comparison anova (95) vs. control: **
  Number of follicles per cross-section, Comparison anova (95) vs. control: **
C57 black six mice; without any additional transdermal delivery platform
  Hair growth as measured by hair shaft length, total follicle area, and number of hair follicles: statistically significantly enhance hair growth
Human subjects; first of 3 participants
  Mean Area: 7.745 sq. in.
Human subjects; second of 3 participants
  Mean Area: 7.411 sq. in.
Human subjects; third of 3 participants
  Mean Area: 7.911 sq. in.
